# Patent US6433022B1, “Spermicide” (Medical Research Council, priority 1997, dated 2002)
# Assays:
# Assay type in all cases: cell-based
# human spermatozoa [1] = test: Effect of inhibitors on NADPH-induced ROS generation, lucigenin-dependent chemiluminescence; conditions: for Lucigenin dependent chemiluminescence: Treated, NADPH-induced, means ± SE; for effect on NADPH-dependent reactive oxygen species generation: dicoumarol 100 μM, sodium oxamate 1 mM, allopurinol 10 mM; for inhibition of the response to NAD(P)H: triton permeabilized cells; for effect of mitochondrial electron transport chain inhibitors on response to NADPH: intact spermatozoa
# Source text: ROS generation was monitored by luminometry employing the chemiluminescence probes lucigenin and luminol. Lucigenin is sensitive to the presence of superoxide anion and was used to monitor the free radical responses to NAD(P)H. Luminol, when used in conjunction with horseradish peroxidase (HRP; Sigma Type Vl, 288 U/mg), detects mainly hydrogen peroxide (Aitken et al., 1992) and was used to monitor the responses of spermatozoa to PMA (phorbol 12-myristate, 13-acetate), an activator of protein kinase C. […] Photon emission was monitored at 37° C. using the Bermold 9505B luminometer (Berthold, Wilbad, Germany) featuring 6 electronically compensated, peltier cooled, photomultipliers and the results expressed as counts/minute. For both of the probes used, 400 μl of spermatozoa, at a concentration of 10×10^6/ml, were placed in a 3 ml plastic, flat-bottomed plastic tube. For luminol-based reactions, the spermatozoa were suspended in BWW supplemented with Albuminar, but when lucigenin was used the Albuminar was replaced with 1 mg/ml polyvinyl alcohol. A 4 μl aliquot of a 25 mM stock solution of either luminol or lucigenin m-dimethyl sulphoxide (DMSO), was then added to the cell suspension, resulting in a final probe concentration of 250 μM. For the measurement of hydrogen peroxide generation by intact cells, luminol-dependent chemiluminescence was enhanced by addition of 8 μl of HRP, freshly prepared at a concentration of 2 mg/ml in PBS, to give a final HRP concentration of 11.52 U/ml. The luminometer results were recorded as continuous traces and as integrated photon counts over a fixed period of time (5 min).
# (§1) In all experiments, DPI was added to the spermatozoa before the addition of NADPH or PMA while control incubations were supplemented with DMSO alone. ROS generation was recorded for approximately 10 min to establish a steady state signal and then 45 μl of NADPH (final concentration 500 μM) or 4 μl of PMA (final concentration 100 nM) were added and the responses monitored for around 20 min using lucigenin and luminol-peroxidase based chemiluminescence respectively.
# Quinacrine was purchased from Sigma and dissolved in 10% DMSO to give a stock solution of 10 mM. […] The impact of quinacrine on NADPH- and PMA-induced ROS generation was monitored as described above for DPI.
# human sperm = test: Effect of quinones on sperm motility; conditions: for mean motility score: 50 μM quinone, human sperm
# Method: Following the preparation of spermatozoa by standard Percoll gradient they were resuspended in homologous seminal plasma to a concentration of 20 million per ml, immediately prior to the beginning of the experiment. 50 μl of the sperm suspension was placed in an eppendorf tube, and the quinone was either added alone or in combination with other reagents, for example, KI, HRP (Horseradish Peroxidase), BHT (butylated hydroxytoluene) etc. depending on the experiment. The volume was made up to 100 μl with BWW/PVA.
# The quinone was always the final reagent to be added. […] The sample was gently agitated and 10 μl was placed on a slide and a motility was scored. The aim was to score a motility approximately 20 seconds following the addition of the quinone. There were two controls set up, one motility count taken at the beginning of the experiment (initial control) and one motility count taken at the end of the experiment (final control). The controls consisted of 50 μl of the sperm suspension followed by the addition of 50 μl BWW/PVA. The reason for having two controls was to observe if any changes in sperm motility had occurred simply as a factor of time, i.e. from residing in seminal plasma for a long duration. At all times during the experiment, the spermatozoa were incubated in a hot box at 24° C. All motility experiments were carried out on sperm suspended in seminal plasma unless otherwise stated.
# human spermatozoa [2] = test: Effect of inhibitors on PMA-induced hydrogen peroxide production, luminol-peroxidase chemiluminescence; conditions: 100 nM PMA
# Source text: ROS generation was monitored by luminometry employing the chemiluminescence probes lucigenin and luminol. Lucigenin is sensitive to the presence of superoxide anion and was used to monitor the free radical responses to NAD(P)H. Luminol, when used in conjunction with horseradish peroxidase (HRP; Sigma Type Vl, 288 U/mg), detects mainly hydrogen peroxide (Aitken et al., 1992) and was used to monitor the responses of spermatozoa to PMA (phorbol 12-myristate, 13-acetate), an activator of protein kinase C. […] Photon emission was monitored at 37° C. using the Bermold 9505B luminometer (Berthold, Wilbad, Germany) featuring 6 electronically compensated, peltier cooled, photomultipliers and the results expressed as counts/minute. […] The luminometer results were recorded as continuous traces and as integrated photon counts over a fixed period of time (5 min).
# as §1, with “respectively. […]” for “respectively.”
# human spermatozoa [3] = test: Nicotinamide dinucleotide-induced superoxide generation, lucigenin-dependent chemiluminescence; conditions: 500 μM nucleotide
# Source text: ROS generation was monitored by luminometry employing the chemiluminescence probes lucigenin and luminol. Lucigenin is sensitive to the presence of superoxide anion and was used to monitor the free radical responses to NAD(P)H. Luminol, when used in conjunction with horseradish peroxidase (HRP; Sigma Type Vl, 288 U/mg), detects mainly hydrogen peroxide (Aitken et al., 1992) and was used to monitor the responses of spermatozoa to PMA (phorbol 12-myristate, 13-acetate), an activator of protein kinase C. NAD(P)H could not be used with the luminol-peroxidase system because of the generation of high background signals, presumably due to the oxidase reactions of HRP. Photon emission was monitored at 37° C. using the Bermold 9505B luminometer (Berthold, Wilbad, Germany) featuring 6 electronically compensated, peltier cooled, photomultipliers and the results expressed as counts/minute. For both of the probes used, 400 μl of spermatozoa, at a concentration of 10×10^6/ml, were placed in a 3 ml plastic, flat-bottomed plastic tube. For luminol-based reactions, the spermatozoa were suspended in BWW supplemented with Albuminar, but when lucigenin was used the Albuminar was replaced with 1 mg/ml polyvinyl alcohol. A 4 μl aliquot of a 25 mM stock solution of either luminol or lucigenin m-dimethyl sulphoxide (DMSO), was then added to the cell suspension, resulting in a final probe concentration of 250 μM. For the measurement of hydrogen peroxide generation by intact cells, luminol-dependent chemiluminescence was enhanced by addition of 8 μl of HRP, freshly prepared at a concentration of 2 mg/ml in PBS, to give a final HRP concentration of 11.52 U/ml. The luminometer results were recorded as continuous traces and as integrated photon counts over a fixed period of time (5 min).
# The ability of human spermatozoa to generate superoxide anion in response to NADPH was monitored by lucigenin-dependent chemiluminescence and compared with its non-phosphorylated and non-reduced counterparts, i.e. NADH, NADP^+ and NAD^+. In addition, the stimulatory properties of an isomer of NADPH, usually non-active in reductive biosynthesis, were examined. All pyridine nucleotides were made up to the required concentration in PBS immediately prior to use. Stock solutions of the nucleotides were made up at concentrations 10 fold higher than the required final working concentration, to allow for a 10 fold dilution on addition to the suspensions of spermatozoa.
molecule,measurement,setting,value
"NC(=O)C(=O)[O-].[Na+] [Sodium Oxamate, sodium oxamate]",Lucigenin dependent chemiluminescence,human spermatozoa [1]; inhibitor 1 mM,5.20 ± 2.10 counts/5 min × 104
same,effect on NADPH-dependent reactive oxygen species generation,human spermatozoa [1],ineffective
"Oc1ncnc2[nH]ncc12 [Allopurinol, allopurinol]",Lucigenin dependent chemiluminescence,human spermatozoa [1]; inhibitor 10 mM,7.19 ± 1.66 counts/5 min × 104
same,effect on NADPH-dependent reactive oxygen species generation,human spermatozoa [1],ineffective
O=C1C=C(O)C(=O)c2ccccc21 [lawsone],mean motility score,human sperm,51%
CC[C@H]1/C=C/C=C/C[C@@H](C)[C@H](O)[C@@](C)(O)C(=O)[C@@H](C)[C@H](O)[C@@H](C)C(=O)[C@@H](C)[C@H](O)[C@@H](C)/C=C/C(=O)O[C@@H]2[C@H](C)[C@H](CC1)O[C@]1(CC[C@H](C)[C@H](C[C@@H](C)O)O1)[C@H]2C [oligomycin],inhibition of the response to NAD(P)H,human spermatozoa [1],no inhibition
"[N-]=[N+]=[N-] [Sodium azide, sodium azide]",Lucigenin dependent chemiluminescence,human spermatozoa [1]; inhibitor 10 μM,7.69 ± 1.54 counts/5 min × 104
"N#CC(C#N)=NNc1cccc(Cl)c1 [CCP, carbonyl cyanide m-chlorophenylhydrazone]",Lucigenin dependent chemiluminescence,human spermatozoa [1]; inhibitor 10 μM,12.61 ± 6.97 counts/5 min × 104
same,effect of mitochondrial electron transport chain inhibitors on response to NADPH,human spermatozoa [1],none of which were effective
"c1ccc2c(c1)[I+]c1ccccc1-2 [DPI, Diphenylene Iodonium]",inhibition of PMA-stimulated hydrogen peroxide production,human spermatozoa [2]; dose range 0.01-100 μM,competent to inhibit
same,suppression of NADPH-induced free radical generation,"human spermatozoa [1]; 500 μM NADPH, statistically significant at the 1 μM level (P<0.001)",dose-dependent capacity to suppress
"C=C(C)[C@H]1Cc2c(ccc3c2O[C@@H]2COc4cc(OC)c(OC)cc4[C@@H]2C3=O)O1 [Rotenone, rotenone]",Lucigenin dependent chemiluminescence,human spermatozoa [1]; inhibitor 10 μM,9.07 ± 2.26 counts/5 min × 104
same,effect of mitochondrial electron transport chain inhibitors on response to NADPH,human spermatozoa [1],none of which were effective
same,inhibition of the response to NAD(P)H,human spermatozoa [1],no inhibition
CCN(CC)CCCC(C)Nc1c2ccc(Cl)cc2nc2ccc(OC)cc12 (stereo not shown) [quinacrine],suppression of responses to PMA,human spermatozoa [2]; doses of 75-100 M,complete loss of activity
same,suppression of NADPH-induced ROS production,"human spermatozoa [1]; 500 μM NADPH, concentrations as high as 50 μM, no dose/response relationship",30-40%
antimycin A,Lucigenin dependent chemiluminescence,human spermatozoa [1]; inhibitor 50 μM,10.53 ± 2.49 counts/5 min × 104
same,effect of mitochondrial electron transport chain inhibitors on response to NADPH,human spermatozoa [1],none of which were effective
same,inhibition of the response to NAD(P)H,human spermatozoa [1],no inhibition
NC(=O)c1ccc[n+]([C@@H]2O[C@H](COP(=O)([O-])OP(=O)(O)OC[C@H]3O[C@@H](n4cnc5c(N)ncnc54)[C@H](OP(=O)(O)O)[C@@H]3O)[C@@H](O)[C@H]2O)c1 [NADP^+],lucigenin-dependent chemiluminescent response (superoxide anion generation),human spermatozoa [3],almost completely without effect
CC1=CC(=O)c2c(O)cccc2C1=O [plumbagin],mean motility score,human sperm,54%
"O=c1oc2ccccc2c(O)c1Cc1c(O)c2ccccc2oc1=O [Dicoumarol, dicoumarol]",Lucigenin dependent chemiluminescence,human spermatozoa [1]; inhibitor 100 μM,5.20 ± 2.10 counts/5 min × 104
same,effect on NADPH-dependent reactive oxygen species generation,human spermatozoa [1],ineffective
NC(=O)C1=CN([C@H]2O[C@H](COP(=O)(O)OP(=O)(O)OC[C@H]3O[C@@H](n4cnc5c(N)ncnc54)[C@H](OP(=O)(O)O)[C@@H]3O)[C@@H](O)[C@H]2O)C=CC1 [α NADPH],lucigenin-dependent chemiluminescent response (superoxide anion generation),human spermatozoa [3],lack of response
NC(=O)c1ccc[n+]([C@@H]2O[C@H](COP(=O)([O-])OP(=O)(O)OC[C@H]3O[C@@H](n4cnc5c(N)ncnc54)[C@H](O)[C@@H]3O)[C@@H](O)[C@H]2O)c1 [NAD^+],lucigenin-dependent chemiluminescent response (superoxide anion generation),human spermatozoa [3],almost completely without effect
O=C1C=CC(=O)c2c(O)cccc21 [juglone],mean motility score,human sperm,5%
same,IC50,"human sperm; human sperm in seminal plasma, motility scored approximately 20 seconds after addition, read-out: ID50, dose-dependent inhibition of sperm motility",~10 µM
NC(=O)C1=CN([C@@H]2O[C@H](COP(=O)(O)OP(=O)(O)OC[C@H]3O[C@@H](n4cnc5c(N)ncnc54)[C@H](O)[C@@H]3O)[C@@H](O)[C@H]2O)C=CC1 [NADH],lucigenin-dependent chemiluminescent response (superoxide anion generation),human spermatozoa [3],approximately one third of that induced by β-NADPH
